Assay results published in patent US9115159B2, “Phosphate compounds, a process for their preparation and pharmaceutical compositions containing them” (LES LABORATOIRES SERVIER, priority 2013, dated 2015).

Experiments:
[1] = Pharmacokinetic profile in the Wistar rat, lipid versus aqueous formulation; assay type: in vivo, male Wistar rats; conditions: Drug from Example 1 administered 100 mg/kg p.o., plasma
Experimental: The pharmacokinetic profile of N-(4-hydroxyphenyl)-3-{6-[((3S)-3-(4-morpholinyl-methyl)-3,4-dihydro-2(1H)-isoquinolinyl)carbonyl]-1,3-benzodioxol-5-yl}-N-phenyl-5,6,7,8-tetrahydro-1-indolizine carboxamide (also referred to as the drug from Example 1) is also evaluated in a lipid and aqueous formulation in the Wistar rat.
The drug from Example 1 is prepared in an aqueous suspension in hydroxyethylcellulose 1% (w/v) in water and compared to a lipid formulation composed of a mixture of anhydrous ethanol/polyethylene glycol 400/Phosal 50PG ([…], v/v/v). The two formulations are administered by the oral route to male Wistar rats (3 rats per formulation) at a dose of 100 mg/kg p.o. (gavage, 10 mL/kg).
Blood samples are taken at the following points in time from each animal (3 animals/point in time): 0.25 hr, 0.5 hr, 0.75 hr, 1 hr, 2 hrs, 4 hrs, 8 hrs and 24 hrs after oral administration.
The plasma concentrations of the tested compound are determined after extraction followed by liquid chromatography coupled with mass spectrometric detection. The limit of quantification is 0.1 ng/mL.

caspase 3 = assay: Induction of caspase activity in vivo (DEVDase activity in tumour lysates, RS4;11 xenograft); parameters: species or system mice (SCID strain); conditions: 100 mg/kg p.o., 16 hours after treatment, RS4;11 tumour lysates, treated mice / control mice
Experimental: The ability of the compounds of formula (I′) to activate caspase 3 is evaluated in a xenograft model of RS4;11 leukaemia cells.
1×10^7 RS4;11 cells are grafted sub-cutaneously into immunosuppressed mice (SCID strain). 25 to 30 days after the graft, the animals are treated orally with the various compounds. Sixteen hours after treatment, the tumour masses are recovered and lysed, and the caspase 3 activity is measured in the tumour lysates.
This enzymatic measurement is carried out by assaying the appearance of a fluorigenic cleavage product (DEVDase activity, Promega). It is expressed in the form of an activation factor corresponding to the ratio between the two caspase activities: the activity for the treated mice divided by the activity for the control mice.
N-(4-Hydroxyphenyl)-3-{6-[((3S)-3-(4-morpholinylmethyl)-3,4-dihydro-2(1H)-isoquinolinyl)carbonyl]-1,3-benzodioxol-5-yl}-N-phenyl-5,6,7,8-tetrahydro-1-indolizine carboxamide (also referred to as the drug from Example 1) was tested. At a dose of 100 mg/kg p.o., the in vivo caspase activation factor is 29.3.

[2] = aqueous formulation (suspension in hydroxyethylcellulose 1% in water)
[3] = lipid formulation (anhydrous ethanol/polyethylene glycol 400/Phosal 50PG)

O=C(c1cc(-c2cc3c(cc2C(=O)N2Cc4ccccc4C[C@H]2CN2CCOCC2)OCO3)n2c1CCCC2)N(c1ccccc1)c1ccc(O)cc1 [Drug from Example 1, N-(4-hydroxyphenyl)-3-{6-[((3S)-3-(4-morpholinylmethyl)-3,4-dihydro-2(1H)-isoquinolinyl)carbonyl]-1,3-benzodioxol-5-yl}-N-phenyl-5,6,7,8-tetrahydro-1-indolizine carboxamide]
AUCt, compound measured: Drug from Example 1 [1, 2]: AUCt (ng · h/mL) = 3480 | Cmax, compound measured: Drug from Example 1 [1, 2]: Cmax (ng/mL) = 816 | AUCt, compound measured: Drug from Example 1 [1, 3]: AUCt (ng · h/mL) = 42900 | Cmax, compound measured: Drug from Example 1 [1, 3]: Cmax (ng/mL) = 5070 | in vivo caspase activation factor (caspase 3): 29.3
